# ChEMBL document CHEMBL3259671, “From virtual to clinical: The discovery of PGN-1531, a novel antagonist of the prostanoid EP4 receptor” (Bioorg Med Chem Lett, 2014)
# Experiment: Solubility of the compound in 0.1 M phosphate buffer/[…] KCl at pH 7.4 after 24 hrs
# Type: physicochemical
# Details: not given
row,solubility at 24 h [µg/mL],Structure (SMILES)
1,2,Cc1oc(C(=O)NS(=O)(=O)c2ccccc2)cc1COc1ccc(-c2ccccc2)cc1
2,11,COc1ccc(-c2ccc(OCc3cc(C(=O)NS(=O)(=O)c4ccccc4)oc3C)cc2)cc1
3,< 0.6,Cc1oc(C(=O)NS(=O)(=O)c2ccccc2)cc1COc1ccc(-c2ccc(OC(F)F)cc2)cc1
4,30,COc1ccc(-c2ccc(OCc3cc(C(=O)NS(=O)(=O)c4ccccc4)oc3C)cc2)nc1
5,7,CCCS(=O)(=O)NC(=O)c1cc(COc2ccc(-c3ccc(OC)cc3)cc2)c(C)o1
6,20,COc1ccc(-c2ccc(OCc3cc(C(=O)NS(=O)(=O)c4ccc(O)cc4)oc3C)cc2)cc1
7,0.2,COc1ccc(-c2ccc(OCc3cc(C(=O)NS(=O)(=O)c4c(C)noc4C)oc3C)cc2)cc1
8,20,COc1ccc(-c2ccc(OCc3cc(C(=O)NS(=O)(=O)c4ccccc4)oc3C)cc2)c(C)c1
9,8,COc1ccccc1-c1ccc(OCc2cc(C(=O)NS(=O)(=O)c3ccccc3)oc2C)cc1
10,< 0.6,COc1ccc(-c2ccc(OCc3cc(C(=O)NS(=O)(=O)c4ccc(CN)cc4)oc3C)cc2)cc1
11,10,COc1ccc(-c2ccc(OCc3cc(C(=O)NS(=O)(=O)N(C)C)oc3C)cc2)cc1
12,5,COc1ccc(-c2ccc(OCc3cc(C(=O)NS(=O)(=O)c4ccc(C)cn4)oc3C)cc2)cc1
13,20,COc1ccc(-c2ccc(OCc3cc(C(=O)NS(=O)(=O)CCCN4CCOCC4)oc3C)cc2)cc1
14,300,Cc1oc(C(=O)NS(=O)(=O)c2ccccc2)cc1CNc1ccc(-c2ccccc2)cc1
15,20,Cc1ccccc1S(=O)(=O)NC(=O)c1cc(CNc2ccc(-c3ccccc3)cc2)c(C)o1
16,< 0.6,Cc1noc(C)c1S(=O)(=O)NC(=O)c1cc(COc2ccc(-c3ccc(OC(F)F)cc3)cc2)c(C)o1
17,20,Cc1ccccc1S(=O)(=O)NC(=O)c1cc(CNc2ccc(-c3ccc(OC(F)F)cc3)cc2)c(C)o1
18,90,COc1ccc(-c2ccc(OCc3cc(C(=O)NS(=O)(=O)c4c(C)noc4C)oc3C)cc2)nc1
19,200,COc1ccc(-c2ccc(OCc3cc(C(=O)NS(=O)(=O)c4c(C)noc4C)oc3C)cc2)c(C)c1
20,10,COc1ccc(-c2ccc(OCc3cc(C(=O)NS(=O)(=O)c4ccccc4C)oc3C)cc2)nc1 [BGC-20-1531 FREE BASE]

# Experiment: Half life in po dosed rat
# Type: ADME, organism-based
# Details: in vivo
row,half-life [h],Structure (SMILES)
1,2.3,COc1ccc(-c2ccc(OCc3cc(C(=O)[N-]S(=O)(=O)c4ccccc4C)oc3C)cc2)nc1.[Na+] [BGC-20-1531]

# Experiment: Intrinsic clearance in human hepatocytes
# Type: ADME, cell-based, Hepatocyte
# Details: read-out: CLH
row,CLint scaled [mL/min/kg],Structure (SMILES)
1,6.5,COc1ccc(-c2ccc(OCc3cc(C(=O)[N-]S(=O)(=O)c4ccccc4C)oc3C)cc2)nc1.[Na+] [BGC-20-1531]

# Experiment: Bioavailability in rat
# Type: ADME, organism-based
# Details: in vivo
row,bioavailability [%],Structure (SMILES)
1,84,COc1ccc(-c2ccc(OCc3cc(C(=O)[N-]S(=O)(=O)c4ccccc4C)oc3C)cc2)nc1.[Na+] [BGC-20-1531]

# Experiment: Permeability across human Caco2 cells
# Type: ADME, cell-based
# Details: Caco-2, read-out: permeability
row,Papp [×10⁻⁶ cm/s],Structure (SMILES)
1,14.5,COc1ccc(-c2ccc(OCc3cc(C(=O)[N-]S(=O)(=O)c4ccccc4C)oc3C)cc2)nc1.[Na+] [BGC-20-1531]

# Experiment: Intrinsic clearance in rat hepatocytes
# Type: ADME, cell-based, Hepatocyte
# Details: read-out: CLH
row,CLint scaled [mL/min/kg],Structure (SMILES)
1,2.7,COc1ccc(-c2ccc(OCc3cc(C(=O)[N-]S(=O)(=O)c4ccccc4C)oc3C)cc2)nc1.[Na+] [BGC-20-1531]
